Data: PMC7203344, “Sirtuin 1 Inhibiting Thiocyanates (S1th)—A New Class of Isotype Selective Inhibitors of NAD^+ Dependent Lysine Deacetylases” (Frontiers in Oncology, 2020)

Test system: HeLa cells
Assay: Wound healing assay with HeLa cells
Assay type: cell-based, human
Settings: 24 h; S1th 13 12 μM
Protocol: For wound healing assay 6 × 10^5 cells per well were seeded in 6-well plates and grown for 24 h in DMEM containing 10% FBS. After 24 h, a lineal gap between cells was created in the middle of the plate by scratching the cell monolayer with a 1 mL pipette tip in the same position in each well. Once the scratching is done, plates were washed twice with PBS and then grown in DMEM containing 1% FBS and the drugs in the same concentrations as for the proliferation assay. As described previously, the growth media 1% FBS containing the drugs was replaced every 48 h. Images were acquired in an Optimal microscope (Leica microscopes, DE) using Leica Application Suite X (LAS X) every 24 h (0, 24, 48, and 72 h) until the gap closed. The quantification of the area of the gap at the indicated times was performed with Image J-MRI Wound Healing Tool. The experiment was performed only once.

Row | Compound | lower reduction of total wound area compared to control without drug
1 | N#CSc1cccc(NS(=O)(=O)c2ccc3c(c2)OCCO3)c1 [S1th 13] | ~ 50%

Biological target: T1, human Sirt5 (Homo sapiens, UniProt Q9NXA8)
T1 construct: Recombinant human Sirt5_37−310 was purchased readily in Tris Buffer; purchased Enzo Life Sciences (NY, USA)
T1 sequence (Q9NXA8 37-310): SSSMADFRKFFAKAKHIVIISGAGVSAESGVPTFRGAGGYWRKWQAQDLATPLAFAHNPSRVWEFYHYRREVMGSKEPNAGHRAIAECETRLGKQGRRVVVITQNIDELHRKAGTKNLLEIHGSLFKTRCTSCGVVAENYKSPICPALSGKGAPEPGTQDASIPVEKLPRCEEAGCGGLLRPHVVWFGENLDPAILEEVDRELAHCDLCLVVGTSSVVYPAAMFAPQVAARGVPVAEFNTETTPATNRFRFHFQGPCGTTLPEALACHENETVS
Assay: Homogeneous ZKsA-based fluorescence assay for Sirt5
Assay type: biochemical
Settings: inhibition tested @ 10 μM
Protocol: Recombinant human Sirt5_37−310 was purchased readily in Tris Buffer [25 mM Tris, 100 mM NaCl, 5 mM DTT, 10% glycerol (v/v)] from Enzo Life Sciences (NY, USA). Human Sirt3_118−395 was expressed and purified as described previously ([54]). For expression of human Sirt1_134−747 and Sirt2_56−356 chemically competent cells of E. coli BL21 Star (DE3) were transformed with the expression vectors pET30S-hSirt1_134−747 or pET30S-hSirt2_56−356. Bacteria were grown at 37°C in 2×YT medium supplemented with 50 μg·mL^−1 of kanamycin to an OD600 of 0.6. Then isopropyl-β-D-1-thiogalactopyranoside (IPTG) was added to a final concentration of 1 mM to induce gene expression. After further cultivation at 20°C for 12 h, the cells were harvested by centrifugation for 15 min at 5,000 g. The cells were resuspended in lysis buffer [100 mM Tris/HCl buffer at pH 8.0, 150 mM NaCl and 10% (v/v) glycerol] and disrupted by ultrasonication (Branson Digital Sonifier 250) at 70% amplitude for 10 min (3 s working, 10 s pause). The crude extract was cleared by centrifugation at 100,000 g for 1 h, and the supernatant was loaded onto a Strep-Tactin Superflow cartridge (5 ml bed volume, IBA Lifescience, Germany). Target proteins were eluted with lysis buffer containing 5 mM D-Desthiobiotin (IBA Lifescience, Germany) and further separated by size-exclusion chromatography (Superdex S200 26/60, GE Healthcare, IL, USA) equilibrated in Tris/HCl buffer (20 mM, 150 mM NaCl, pH 8.0). Pure protein was concentrated by ultrafiltration, flash-frozen in liquid nitrogen and stored at −80°C until further use. Identity as well as purity were verified by SDS-PAGE ([55]) and protein concentration was determined by the bicinchoninic acid (BCA) method, using bovine serum albumin (BSA) as a standard ([56]). Deacetylase activity was confirmed to be NAD^+-dependent and could be inhibited with the physiological sirtuin inhibitor nicotinamide.
Inhibition of Sirt5 was measured using a general procedure described before with small modifications ([58]). Sirt5 was purchased from Enzo Life Science (NY, USA) and used as received. Z-Lys(succ)-aminomethyl coumarin (ZKsA) was used as a substrate for Sirt5 mediated desuccinylation. In black 384-well non-binding plates (Greiner Bio-One, Monroe, NC) Sirt5 was mixed with 2 μL of ZKsA (1 mM stock solution in assay buffer [(50 mM Tris·HCl, 137 mM NaCl, 2.7 mM KCl, 1 mM MgCl2, pH 8.0, and 0.1% PEG8000), 100 μM final assay concentration], 1 μL of Inhibitor dissolved in DMSO or DMSO as a control [final DMSO concentration 5% (v/v)], 2 μL NAD^+ (5 mM stock solution in assay buffer, final assay concentration 500 μM) and filled up to a total volume of 20 μL with assay buffer. The mixture was incubated for 1 h at 37°C and 140 rpm before 4 μL of trypsin solution (50 mM Tris, 100 mM NaCl, pH 8.0, 6 mg/mL trypsin buffer, 1 mg/mL final assay concentration) was added to stop the enzymatic reaction. After 2 min of incubation at 37°C and 140 rpm fluorescence intensity was detected as described above. Sirt5 concentration was adjusted to 15–30% substrate conversion. A negative control without enzyme and a positive control containing AMC instead of ZKsA were performed as well. Inhibition was calculated in % in relation to a DMSO control and was determined in triplicates.

Row | inhibition at 10 µM | Compound
2 | < 10% | N#CSc1cccc(NC(=O)[C@H]2CC=CC[C@H]2C(=O)O)c1 [S1th 10]
3 | < 10% | CCCCNC(=O)Nc1cccc(SC#N)c1 [S1th 11]
4 | < 10% | COc1ccc(SC#N)cc1OCC(=O)N(CCC#N)CCC#N [S1th 12]
5 | < 10% | N#CSc1cccc(NS(=O)(=O)c2ccc3c(c2)OCCO3)c1 [S1th 13]

Row | Compound | inhibition at 10 µM
6 | N#CSc1cc(SC#N)c(N)nc1N [PR-619, reference compound] | 28%
